Experimental data taken from ChEMBL document CHEMBL1149638, “Synthesis of novel antitumoural analogues of dysidiolide from ent-halimic acid” (Bioorg Med Chem, 2007).

Assays:
Type in all cases: functional, cell-based
HL-60 = assay: Antiproliferative activity against human HL60 cells after 72 hrs by XTT assay; conditions: HL-60, 72 h
A549 = assay: Antiproliferative activity against human A549 cells after 72 hrs by XTT assay; conditions: A549, 72 h
HT-29 = assay: Antiproliferative activity against human HT29 cells after 72 hrs by XTT assay; conditions: HT-29, 72 h
HeLa = assay: Antiproliferative activity against human HeLa cells after 72 hrs by XTT assay

Structure (SMILES)	IC50 (HL-60)	IC50 (A549)	IC50 (HT-29)	IC50 (HeLa)
COC/C=C(\C)CC[C@]1(C)C2=C(CC[C@H]1C)C1(C)CCC2[C@@](O)(C2=CC(=O)OC2O)C1 (stereo not given in full)	18.7 µM	28.2 µM	18.7 µM	26.5 µM
C=C(C)CC[C@]1(C)C2=CCC[C@](C)(C[C@@H](O)C3=CC(=O)OC3O)[C@H]2CC[C@H]1C (stereo not given in full)	3.3 µM	4.4 µM	3.6 µM	5.4 µM
C=C(C)CC[C@]1(C)C2=CCC[C@](C)(C[C@@H](O)c3ccoc3)[C@H]2CC[C@H]1C	28.7 µM	34 µM	30 µM	30.2 µM
C=C(C)CCC[C@]1(C)C2=CCC[C@](C)(C[C@H](O)c3ccoc3)[C@H]2CC[C@H]1C	31.2 µM	66 µM	63.1 µM	59.4 µM
CC(C)=CCC[C@]1(C)C2=CCC[C@](C)(CC(=O)c3ccoc3)[C@H]2CC[C@H]1C	57.8 µM	91 µM	82.3 µM	54.5 µM
C=C(C)CC[C@]1(C)C2=CCC[C@](C)(C[C@H](O)c3ccoc3)[C@H]2CC[C@H]1C	28.7 µM	34 µM	30 µM	30.2 µM
C=C(C)CCC[C@]1(C)C2=CCC[C@](C)(C[C@@H](O)c3ccoc3)[C@H]2CC[C@H]1C	31.2 µM	66 µM	63.1 µM	59.4 µM
C=C(C)CCC[C@]1(C)C2=CCC[C@](C)(CC(=O)c3ccoc3)[C@H]2CC[C@H]1C	> 100 µM	> 100 µM	> 100 µM	> 100 µM
C=C(C)CC[C@]1(C)C2=CCC[C@](C)(C[C@@H](OC(C)=O)C3=CC(=O)OC3O)[C@H]2CC[C@H]1C (stereo not given in full)	3.3 µM	11.1 µM	4.8 µM	6.7 µM

The next compounds have a lower IC50 (HL-60) than those just listed; values first:

IC50 (HL-60)	IC50 (A549)	IC50 (HT-29)	IC50 (HeLa)	Structure (SMILES)
3 µM	4.5 µM	4.2 µM	2.6 µM	C=C(C)CCC[C@]1(C)C2=CCC[C@](C)(C[C@H](OC(C)=O)C3=CC(=O)OC3O)[C@H]2CC[C@H]1C (stereo not given in full)
3 µM	3.2 µM	3 µM	3.8 µM	C=C(C)CCC[C@]1(C)C2=CCC[C@](C)(C[C@H](O)C3=CC(=O)OC3O)[C@H]2CC[C@H]1C (stereo not given in full)
3.2 µM	3.8 µM	2.3 µM	2.6 µM	C=C(C)CCC[C@]1(C)C2=CCC[C@](C)(C[C@@H](O)C3=CC(=O)OC3O)[C@H]2CC[C@H]1C (stereo not given in full)
3.2 µM	4.5 µM	3.2 µM	4.8 µM	C=C(C)CC[C@]1(C)C2=CCC[C@](C)(C[C@H](O)C3=CC(=O)OC3O)[C@H]2CC[C@H]1C (stereo not given in full)
0.3 µM	3 µM	2.9 µM	3.1 µM	C=C(C)CCC[C@]1(C)C2=C(CC[C@H]1C)C1(C)CCC2[C@@](O)(C2=CC(=O)OC2O)C1 (stereo not given in full)
3.2 µM	3.2 µM	2.9 µM	3.5 µM	C=C(C)CCC[C@]1(C)C2=CCC[C@](C)(C[C@@H](OC(C)=O)C3=CC(=O)OC3O)[C@H]2CC[C@H]1C (stereo not given in full)
